Data on twelve compounds can be found in patent publication US11827628B2, “Compositions and methods for inhibition of the JAK pathway” (Rigel Pharmaceuticals, Inc., priority 2005, dated 2023).

Test [1] has as its system Primary human T-cells. In words: Primary Human T-Cell Proliferation Assay Stimulated with IL-2 (CellTiter-Glo). The settings on record: read-out: IC50, Example 42. The format is cell-based. The essentials: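 IC50 derived from CellTiter-Glo ATP signal after 72 hours of IL-2-driven proliferation at 37° C. Cells: primary human T-cells from blood, stimulated beforehand 3-4 days on anti-CD3/anti-CD28 with IL-2, then rested from IL-2 before compound exposure in duplicate; IL-2-free wells served as unstimulated control.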
In general terms: Cellular ATP, detected with luciferase, serves as a proxy for viable cell number.

Test [2] deals with up-regulation of ICAM-1 (CD54) by IFNγ in A549 lung epithelial cells. Kind of test: A549 Epithelial Line Stimulated with IFNγ (ICAM-1 surface expression, FACS). The format is cell-based, human. To be noted: ICAM-1 expression by FACS, read-out: IC50, Example 43. In a few lines: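 ICAM-1 (CD54) flow cytometry on live-gated A549 cells, geometric mean versus dose giving EC50. Cells received IFNγ at 75 ng/mL for 24 h after a 1 h compound pre-treatment spanning 30 μM to 14 nM in medium with 5% FBS and 0.3% DMSO.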

[3] abbreviates: primary human T-cell proliferation stimulated with IL-2.
[4] abbreviates: A549 epithelial line stimulated with IFNγ.
Setting [5] is: primary human T-cells stimulated with IL-2, proliferation.
The mark [6] stands for this setting: A549 cells stimulated with IFNγ.

One may read the IC50 as the concentration that gives 50% inhibition.

Like-named read-outs stand apart in the source and are kept apart here.

With `N#CCOc1ccc(Nc2nc(Nc3cccc(S(N)(=O)=O)c3)ncc2Br)cc1` [Compound I-13, N2-(3-Aminosulfonylphenyl)-5-bromo-N4-(4-cyanomethyleneoxyphenyl)-2,4-pyrimidinediamine], the 50% inhibitory concentration (IC50) was 5.05 nM in test [1] (setting [3]) and 1340 nM in test [2] (setting [4]).

As for `Cc1ccc(Nc2ncc(Br)c(Nc3ccc(OCC#N)cc3)n2)cc1S(N)(=O)=O` [Compound I-14, N2-(3-Aminosulfonyl-4-methylphenyl)-5-bromo-N4-(4-cyanomethyleneoxyphenyl)-2,4-pyrimidinediamine], the results for the IC50 in test [1] (setting [3]) and in test [2] (setting [4]) were 11.5 nM and 612 nM, respectively.

For `Cc1ccc(Nc2ncc(F)c(Nc3cc(C)c(OCC(N)=O)c(C)c3)n2)cc1S(N)(=O)=O` [Compound I-96, N4-(4-Aminocarbonylmethoxy-3,5-dimethyl)phenyl-N2-(3-aminosulfonyl-4-methyl)phenyl-5-fluoro-2,4-pyrimidinediamine], the IC50 in test [1] (setting [3]) was 772 nM; in test [2] (setting [4]) it was 40900 nM.

As for `NS(=O)(=O)c1cccc(Nc2ncc(F)c(Nc3ccc(OCc4cccnc4)cc3)n2)c1` [Compound I-188, N2-(3-Aminosulfonylphenyl)-5-fluoro-N4-[4-(3-pyridinyl)methyleneoxyphenyl]-2,4-pyrimidinediamine], the IC50 in test [1] (setting [3]) is 64.2 nM; in test [2] (setting [4]), 15100 nM.

For `Cc1ccc(Nc2ncc(F)c(Nc3ccc(OCc4cccnc4)cc3)n2)cc1S(N)(=O)=O` [Compound I-189, N2-(3-Aminosulfonyl-4-methylphenyl)-5-fluoro-N4-[4-(3-pyridinyl)methyleneoxyphenyl]-2,4-pyrimidinediamine], the values for the half-inhibitory concentration (IC50) in test [1] (setting [3]) and in test [2] (setting [4]) were 143 nM and 6740 nM, respectively.

Take `CNS(=O)(=O)c1cc(Nc2ncc(F)c(Nc3ccc(OCc4cccnc4)cc3)n2)ccc1C` [Compound I-190, 5-Fluoro-N2-[3-(N-methylaminosulfony)-4-methylphenyl]-5-fluoro-N4-[4-(3-pyridinyl)methyleneoxyphenyl]-2,4-pyrimidinediamine]: the 50% inhibitory concentration (IC50) in test [1] (setting [3]) came to 242 nM; in test [2] (setting [4]) it was 9310 nM.

In the case of `Cc1ccc(Nc2ncc(F)c(Nc3ccc(OCc4ccncc4)cc3)n2)cc1S(N)(=O)=O` [Compound I-194, N2-(3-Aminosulfonyl-4-methylphenyl)-5-fluoro-N4-[4-(4-pyridinyl)methyleneoxyphenyl]-2,4-pyrimidinediamine], the IC50 in test [1] (setting [3]) amounted to 99.3 nM; in test [2] (setting [4]), 5030 nM.

As to `Cc1ccc(Nc2nc(Nc3ccc(S(N)(=O)=O)cc3)ncc2F)cc1OCC(=O)N1CCOCC1` [Compound I-209, N2-(4-Aminosulfonylphenyl)-5-fluoro-N4-[4-methyl-3-(2-morpholinocarbonylmethyleneoxy)phenyl]-2,4-pyrimidinediamine], the results for the IC50 in test [1] (setting [3]) and in test [2] (setting [4]) were 4470 nM and 2970 nM, respectively.

In the case of `N#CCn1ccc2cc(Nc3nc(Nc4cccc(S(N)(=O)=O)c4)ncc3F)ccc21` [IX-5, N2-(3-Aminosulfonylphenyl)-N4-(1-cyanomethyleneindol-5-yl)-5-fluoro-2,4-pyrimidinediamine], the IC50 in test [1] (setting [5]) came out at 73.8 nM; in test [2] (setting [6]), 6100 nM.

Consider `N#CCn1ccc2cc(Nc3nc(Nc4ccc(S(N)(=O)=O)cc4)ncc3F)ccc21` [IX-6, N2-(4-Aminosulfonylphenyl)-N4-(1-cyanomethyleneindol-5-yl)-5-fluoro-2,4-pyrimidinediamine], for which the IC50 in test [1] (setting [5]) is 535 nM; in test [2] (setting [6]), 36800 nM.

In the case of `Cc1ccc(Nc2ncc(F)c(Nc3ccc4c(ccn4CC#N)c3)n2)cc1S(N)(=O)=O` [IX-8, N2-(3-Aminosulfonyl-4-methylphenyl)-N4-(1-cyanomethyleneindol-5-yl)-5-fluoro-2,4-pyrimidinediamine], the IC50 in test [1] (setting [5]) is 124 nM; in test [2] (setting [6]), 5240 nM.

For `C#CCOc1ccc(Nc2nc(Nc3ccc(C)c(S(=O)(=O)NC4CCN(C)CC4)c3)ncc2F)cc1` [VI-69, 5-Fluoro-N2-{[4-methyl-3-((1-methylpiperidin-4-yl)aminosulfonyl)]phenyl} N4-[4-(prop-2-ynyloxy)phenyl]-2,4-pyrimidinediamine], the values for the concentration for half-maximal inhibition (IC50) in test [1] (setting [5]) and in test [2] (setting [6]) were 1340 nM and 18700 nM, respectively.
